How the values were obtained:
Type in all cases: in vivo
[1] = system: Petunia plants; experiment: Iron content in plant tissue after drench with Fe treatments (elemental analysis), Petunia; settings: 4 ppm drench for 3 weeks; soilless media with lime, target pH 7.0
Protocol: (§1) In order to establish the efficacy of PP-derived chelates, we applied the PP-Cres-Asp iron chelate to two plant species known in the field to have difficulties in absorbing iron, Calibrachoa and Petunia plants. In this trial, the plants were grown in soilless media (80% peat and 20% perlite) with lime to increase the target pH to 7.0, a pH that is averse to iron uptake in plants. All plants were top dressed with a standard polymer-coated fertilizer to provide the standard nitrogen, phosphorus, and potassium nutrition along with other micro nutrients, excluding iron. Lighting was controlled for 16-hour days. There were 3 treatments of iron added (or not added) to each bucket as follows:
(§2) Treatments 1-3 were applied to the respective plants as a drench for 3 weeks. Following 3 weeks of treatment, tissue samples were gathered from each plant and subjected to elemental analysis for measurement of iron content in the plant tissue.

[2] = system: Calibrachoa plants; experiment: Iron content in plant tissue after drench with Fe treatments (elemental analysis), Calibrachoa; settings: 4 ppm drench for 3 weeks; soilless media with lime, target pH 7.0
Protocol: as §1, §2

[3] = system: bell pepper plants, Capsicum annuum; experiment: Iron content in leaves of bell pepper plants grown hydroponically with Fe chelates (elemental analysis); settings: for Iron content in plant leaves: leaves after week 2, finished iron solution of 4 ppm in no-iron Steiner hydroponic solution, pH 8; for Amount of iron delivered / iron content by plant tissue analyses (in words): bell pepper plants, 4 ppm iron chelate, compared with EDTA or EDDHA chelates
Protocol: (§3) Seven (7) identical cultivated varieties of bell pepper plants, Capsicum annuum were grown in individual five-gallon containers deep-water-culture (DWC) containers (the Root Spa bucket system by Hydrofarm) that is continuously aerated by a single oxygen line that stems from an air pump in a soilless media of rockwool surrounded by clay pebbles in a mesh tray that rests on top of the buckets. The pepper plants were grown indoors with an ambient air temperature of around 72° F. The light source came from high-pressure sodium bulbs with a light interval of 12 hours on and 12 hours off.
(§4) The pepper plants were grown with a beginning identical nutritional mix similar to that of a Steiner hydroponic solution. […] The total solution pH was raised to 8 and adjusted daily to maintain the pH at 8. Potassium hydroxide was used to increase the pH. There were 7 treatments of iron added (or not added) to each bucket as follows:
(§5) As more water was needed, the appropriate amount of no-iron Steiner solution and Fe-chelate/Fe-chelate mixture was added to maintain a finished iron solution of 4 ppm.
(§6) Leaf samples (at least two per plant) were collected at the end of the normal nutritional program (2 weeks). […] Elemental analyses of iron content in the plants leaves was carried out after week 2.

[4] = system: bell pepper plants, Capsicum annuum; experiment: Overall plant growth of bell pepper plants grown hydroponically with Fe chelates; settings: 2 weeks; 4 ppm iron, Steiner hydroponic solution, pH 8; compared with Fe EDTA and Fe EDDHA
Protocol: as §3, §4, §5, §6

| Molecule | Fe in plant tissue, Petunia [1] [ppm] | Fe in plant tissue, Calibrachoa [2] [ppm] | Iron content in plant leaves [3] [ppm] | Overall growth of the plants [4] | Amount of iron delivered / iron content by plant tissue analyses (in words) [3] |
| --- | --- | --- | --- | --- | --- |
| Cc1ccc(O)c(CN(Cc2cc(C)ccc2O)C(CC(=O)O)C(=O)O)c1 (stereo not drawn) [PP-Cres-Asp] | 80 | 56 |  |  |  |
| ethylenediamine-N,N′-bis(2-hydroxyphenylacetic acid [Fe EDDHA, reference compound] |  |  | 91 |  |  |
| CCCc1cc(CN(CC(=O)O)CC(=O)O)c(O)c(OC)c1 [DHE-IDA] |  |  |  | comparable to controls using conventional EDTA or EDDHA and superior to plants where only iron salts without chelate were used | substantially greater than EDTA or EDDHA chelates |
| O=C(O)CN(CCN(CC(=O)O)CC(=O)O)CC(=O)O [Fe EDTA, ethylenediaminetetraacetic acid, reference compound] | 45 | 39 | 134 |  |  |
| p-cresol iminodiacetic acid [Cres-IDA] |  |  |  |  | substantially greater than EDTA or EDDHA chelates |
